Assay results as given in patent US9622997B2, “Methods for treating insomnia” (Lynn Health Science Institute, Inc., priority 2012, dated 2017).
Marks after values point to notes of the source that are not given here.

Key:
[1] = system: healthy subjects subjected to a transient insomnia protocol; experiment: Transient insomnia protocol (2 hour phase advance), double blind cross-over, overnight PSG and morning self-report; format: in vivo, human
Excerpt: Twenty-four (24) healthy subjects aged 18-65 years (inclusive) with no insomnia were recruited for this study. […] Individuals were also excluded if they had excessive daytime sleepiness indicated by an Epworth Sleepiness Score (ESS) of >9 or a chronic sleep disturbance indicated by a Pittsburgh Sleep Questionnaire Inventory (PSQI) score of >5. Shift workers or subjects with irregular sleep schedules were excluded. Women of child-bearing potential who used medically acceptable methods of contraception were allowed to participate. Subjects were excluded if they had any of the following: BMI≧30; symptoms of gastroesophageal reflux such as heartburn on a regular basis; history of allergic reaction or hyper-sensitivity to benzodiazepines or CNS depressants; or evidence of any clinically significant medical abnormality or chronic disease indicated on laboratory screen or physical exam. Subjects were also excluded if they had any of the following: a history of alcohol or drug abuse; consume >2 alcoholic beverages on a single day and >14 beverages weekly; or >5 cigarettes a day and could not forego smoking for up to 14 hours while in the sleep lab. Participants abstained from over-the-counter medications within 7 days of the polysomnographic (hereinafter “PSG”) evaluation (except accepted birth control medication, NSAIDS/acetaminophen for infrequent pain not considered clinically significant). Participants abstained from alcohol for 24 hours and caffeine for 6 hours prior to each PSG evaluation. Eligible participants were required to report normal sleep patterns during the week before each PSG defined as a bedtime between 21:00 and 24:00 on at least 5 of 7 consecutive nights, with reported sleep duration between 7-9 hours, and no more than 2 naps a week.
The present study was a single-site study approved by Aspire Institutional Review Board. The study design was a double blind cross-over study. Subjects gave written informed consent prior to any study-related procedures. The study consisted of a screening session and two overnight PSGs. The treatments consisted of baclofen 20 mg and placebo. The screening session consisted of a medical screening visit to determine eligibility and safety for each subject. Eligible subjects were randomized into two treatment sequences based on a random permutation algorithm. One treatment sequence received baclofen 20 mg on the night of the first PSG, then placebo on the night of the second PSG. The other treatment sequence received placebo on the night of the first PSG, then baclofen 20 mg on the night of the second PSG. Subjects were given a 7 day sleep diary to complete immediately prior to the first sleep study. Subjects were given a second 7 day sleep diary to complete immediately prior to the second sleep study. Lights out was determined as two hours earlier than the subject's median habitual bedtime indicated in the diary prior to each PSG. Study drug (baclofen 20 mg or placebo) was administered 90 minutes prior to lights out.
On the PSG nights, respiratory effort and airflow, oxygen saturation, leg and chin EMGs were recorded in addition to the routine PSG measures to exclude subjects with sleep-related breathing disorders and periodic limb movement disorder. […] PSG measures consisted of the following: wake after sleep onset (WASO), total sleep time (TST), sleep onset latency (SOL), sleep efficiency (SE), percent sleep stage 1, percent sleep stage 2, percent sleep stages 3 and 4 combined, percent sleep REM. Self-report measures consisted of the following: subjective TST (sTST), subjective SOL (sSOL), subjective number of awakenings from sleep (sNAS), subjective sleep quality (sSQ). All PSGs were analyzed by one of the authors blinded to the treatment groups. […]

normal participants = settings: acute dose 40 mg; cited from earlier work
[2] = baclofen vs. placebo; cited from earlier work
[3] = PSG measure, percentage of TST, baclofen 20 mg
[4] = PSG measure, baclofen 20 mg 90 minutes prior to lights out, n=20
[5] = baclofen 20 mg vs placebo, not significant
[6] = baclofen 20 mg vs placebo, p < 0.01
[7] = baclofen 20 mg vs placebo, p < 0.05
[8] = self-report, morning questionnaire, baclofen 20 mg

NCC(CC(=O)O)c1ccc(Cl)cc1 (stereo not drawn) [Baclofen, 4-amino-3-(4-chlorophenyl)-butanoic acid]
REM [1, 3]: 24.1 ± 1.3% | Stage 1 [1, 3]: 2.3 ± 0.3% | Stage 2 [1, 3]: 58.9 ± 2.0% | Stage 3/4 [1, 3]: 14.7 ± 1.4% | SE [1, 4]: 90.6 ± 1.2% | SOL [1, 4]: 19.4 ± 3.8 min | TST [1, 4]: 435.4 ± 5.8 min | WASO [1, 4]: 25.6 ± 4.0 min | SOL Absolute Change [1, 5]: -0.4 min | sSOL Absolute Change [1, 5]: -1.0 min | sTST Absolute Change [1, 5]: 0.3 h | REM Absolute Change ([1]; baclofen 20 mg vs placebo, not significant (p=0.067)): 3.5% | Stage 2 Absolute Change ([1]; baclofen 20 mg vs placebo, not significant (p=0.092)): −3.9% | Stage 1 Absolute Change ([1]; baclofen 20 mg vs placebo, p < 0.001): −1.8*** % | TST Absolute Change [1, 6]: 27.7** min | sNAS Absolute Change [1, 6]: −1.3** # | Stage 3/4 Absolute Change [1, 7]: 2.7* % | WASO Absolute Change [1, 7]: −28.4* min | sSQ Absolute Change [1, 7]: −0.5* scale 1-4 | baclofen data better than zolpidem (decrease in WASO, increase in SE) ([1]; baclofen 20 mg vs zolpidem 10 mg (WASO 9.4 min, SE 3.7%), 2 hr phase advance): 2-4 fold | sSOL [1, 8]: 25.0 ± 4.1 min | sTST [1, 8]: 7.1 ± 0.2 h | sNAS ([1]; self-report, number of awakenings, baclofen 20 mg): 2.4 ± 0.4 | sSQ ([1]; self-report, 1 = good, 2 = average, 3 = below average, 4 = poor, baclofen 20 mg): 1.9 ± 0.2 scale 1-4 | TST ([1]; ↑ increase compared to placebo, 20 mg, 2 hour phase-advance, current study): ↑ 27.7 min | SOL ([1]; ↓ decrease compared to placebo, NS, 20 mg, 2 hour phase-advance, current study): ↓ 0.4^NS min | wake after sleep onset (WASO), change vs placebo ([1]; ↓ decrease compared to placebo, 20 mg, 2 hour phase-advance, current study): ↓ 28.3 min | ACT (normal participants): no significant change | postprandial reflux events (normal participants): significant reduction | decrease in reflux events in other studies [2]: ~40%
